Like-named read-outs stand apart in the source and are kept apart here.
Experiments:
SF-268 = assay: NCI 60 cell line five dose, CNS Cancer
SW-620 = assay: NCI 60 cell line five dose, Colon Cancer
SN12C = assay: NCI 60 cell line five dose, Renal Cancer
TK-10 = assay: NCI 60 cell line five dose, Renal Cancer
MDA-MB-231/ATCC = assay: NCI 60 cell line five dose, Breast Cancer
MDA-MB-468 = assay: NCI 60 cell line five dose, Breast Cancer
NCI/ADR-RES = assay: NCI 60 cell line five dose, Ovarian Cancer; details: NCI/ADR-
DU-145 = assay: NCI 60 cell line five dose, Prostate Cancer
NCI-H23 = assay: NCI 60 cell line five dose, Non-Small Cell Lung Cancer
NCI-H322M = assay: as above
NCI-H522 = assay: as above

## C=C1C(=O)O[C@H]2[C@H]1CC/C(COC(=O)NCCCCNC(=O)OC/C1=C/CC[C@@]3(C)O[C@H]3[C@H]3OC(=O)C(=C)[C@@H]3CC1)=C\CC[C@@]1(C)O[C@@H]21 [JVM 3-54, bis(((1aR,7aS,10aS,10bS,E)-1a-Methyl-8-methylene-9-oxo-1a,2,3,6,7,7a,8,9,10a,10b-decahydrooxireno[2′,3′:9,10]cyclodeca[1,2-b]furan-5-yl)methyl)butane-1,4-diyldicarbamate]
HL-60(TB)
  GI50: 0.256 µM
  TGI: 1.08 µM
HL-60(TB); Log10 Concentration −4.0
  Percent Growth: −38%
HL-60(TB); Log10 Concentration −5.0
  Percent Growth: −41%
HL-60(TB); Log10 Concentration −6.0
  Percent Growth: 1%
HL-60(TB); Log10 Concentration −7.0
  Percent Growth: 84%
HL-60(TB); Log10 Concentration −8.0
  Percent Growth: 962%
HL-60(TB); read-out: LC50
  CC50: > 100 µM
SF-268
  GI50: 3.18 µM
  TGI: 12.6 µM
SF-268; Log10 Concentration −4.0
  Percent Growth: −74%
SF-268; Log10 Concentration −5.0
  Percent Growth: 8%
SF-268; Log10 Concentration −6.0
  Percent Growth: 92%
SF-268; Log10 Concentration −7.0
  Percent Growth: 97%
SF-268; Log10 Concentration −8.0
  Percent Growth: 97%
SF-268; read-out: LC50
  CC50: 51 µM
SW-620
  GI50: 0.586 µM
  TGI: 2.04 µM
SW-620; Log10 Concentration −4.0
  Percent Growth: −72%
SW-620; Log10 Concentration −5.0
  Percent Growth: −79%
SW-620; Log10 Concentration −6.0
  Percent Growth: 35%
SW-620; Log10 Concentration −7.0
  Percent Growth: 98%
SW-620; Log10 Concentration −8.0
  Percent Growth: 100%
SW-620; read-out: LC50
  CC50: 5.56 µM
SN12C
  GI50: 2.75 µM
  TGI: 10.1 µM
SN12C; Log10 Concentration −4.0
  Percent Growth: −84%
SN12C; Log10 Concentration −6.0
  Percent Growth: 89%
SN12C; Log10 Concentration −7.0
  Percent Growth: 101%
SN12C; Log10 Concentration −8.0
  Percent Growth: 100%
SN12C; read-out: LC50
  CC50: 39.5 µM
TK-10
  GI50: 1.61 µM
  TGI: 4.12 µM
TK-10; Log10 Concentration −4.0
  Percent Growth: −99%
TK-10; Log10 Concentration −5.0
  Percent Growth: −47%
TK-10; Log10 Concentration −6.0
  Percent Growth: 75%
TK-10; Log10 Concentration −7.0
  Percent Growth: 93%
TK-10; Log10 Concentration −8.0
  Percent Growth: 97%
TK-10; read-out: LC50
  CC50: 11.3 µM
MDA-MB-231/ATCC
  GI50: 1.53 µM
  TGI: 3.24 µM
MDA-MB-231/ATCC; Log10 Concentration −4.0
  Percent Growth: −85%
MDA-MB-231/ATCC; Log10 Concentration −5.0
  Percent Growth: −76%
MDA-MB-231/ATCC; Log10 Concentration −6.0
  Percent Growth: 79%
MDA-MB-231/ATCC; Log10 Concentration −7.0
  Percent Growth: 104%
MDA-MB-231/ATCC; Log10 Concentration −8.0
  Percent Growth: 103%
MDA-MB-468
  GI50: 0.426 µM
  TGI: 2 µM
MDA-MB-468; Log10 Concentration −4.0
  Percent Growth: −69%
MDA-MB-468; Log10 Concentration −5.0
  Percent Growth: −59%
MDA-MB-468; Log10 Concentration −6.0
  Percent Growth: 26%
MDA-MB-468; Log10 Concentration −7.0
  Percent Growth: 91%
MDA-MB-468; Log10 Concentration −8.0
  Percent Growth: 92%
MDA-MB-468; read-out: LC50
  CC50: 7.76 µM
NCI/ADR-RES
  GI50: 37.7 µM
NCI/ADR-RES; Log10 Concentration −4.0
  Percent Growth: 23%
NCI/ADR-RES; Log10 Concentration −5.0
  Percent Growth: 86%
NCI/ADR-RES; Log10 Concentration −6.0
  Percent Growth: 99%
NCI/ADR-RES; Log10 Concentration −7.0
  Percent Growth: 90%
NCI/ADR-RES; Log10 Concentration −8.0
  Percent Growth: 94%
NCI/ADR-RES; read-out: LC50
  CC50: > 100 µM
DU-145
  GI50: 3.21 µM
  TGI: 10.5 µM
DU-145; Log10 Concentration −4.0
  Percent Growth: −96%
DU-145; Log10 Concentration −5.0
  Percent Growth: 2%
DU-145; Log10 Concentration −6.0
  Percent Growth: 99%
DU-145; Log10 Concentration −7.0
  Percent Growth: 98%
DU-145; Log10 Concentration −8.0
  Percent Growth: 99%
DU-145; read-out: LC50
  CC50: 33.8 µM
NCI-H23
  GI50: 2.18 µM
  TGI: 5.54 µM
NCI-H23; Log10 Concentration −4.0
  Percent Growth: −70%
NCI-H23; Log10 Concentration −5.0
  Percent Growth: 32%
NCI-H23; Log10 Concentration −6.0
  Percent Growth: 92%
NCI-H23; Log10 Concentration −7.0
  Percent Growth: 95%
NCI-H23; Log10 Concentration −8.0
  Percent Growth: 95%
NCI-H23; read-out: LC50
  CC50: 30.4 µM
NCI-H322M
  GI50: 12.6 µM
  TGI: 25.8 µM
NCI-H322M; Log10 Concentration −4.0
  Percent Growth: −94%
NCI-H322M; Log10 Concentration −5.0
  Percent Growth: 66%
NCI-H322M; Log10 Concentration −6.0
  Percent Growth: 104%
NCI-H322M; Log10 Concentration −7.0
  Percent Growth: 100%
NCI-H322M; Log10 Concentration −8.0
  Percent Growth: 100%
NCI-H322M; read-out: LC50
  CC50: 52.9 µM
NCI-H522
  GI50: 0.167 µM
  TGI: 0.375 µM
NCI-H522; Log10 Concentration −4.0
  Percent Growth: −71%
NCI-H522; Log10 Concentration −5.0
  Percent Growth: −75%
NCI-H522; Log10 Concentration −6.0
  Percent Growth: −60%
NCI-H522; Log10 Concentration −7.0
  Percent Growth: 82%
NCI-H522; Log10 Concentration −8.0
  Percent Growth: 95%
NCI-H522; read-out: LC50
  CC50: 0.845 µM
